From ChEMBL document CHEMBL3885861, “Open TG-GATES”

Organism: Rattus norvegicus
Test: Open TG-GATES - Regimen: Daily Repeat
Type: toxicity, organism-based, Sprague-Dawley
Parameters: regimen Daily Repeat, gender Male, age 6 weeks
Conditions: in vivo, po, 1000 mg/kg, route gavage, dose level High; for APTT / Bas / Eos / Fbg / Hb / Ht / Lym / MCH / MCHC / MCV / Mono / Neu / PT / Plat / RBC / Ret / WBC: tissue Blood; for KIDNEY_L / KIDNEY_R / KIDNEY_TOTAL: tissue Kidney; for LIVER: tissue Liver; for ALP / AST / BUN / CRE / Ca / Cl / DBIL / GLC / IP / K / LDH / Na / PL / RALB / TBIL / TC / TG / TP / gamma-GTP: tissue Plasma

COc1ccc2[nH]c([S+]([O-])Cc3ncc(C)c(OC)c3C)nc2c1 (centres undefined) [OMEPRAZOLE]
TERMINAL_BW (72 h, time 3 day): 219.1 g
APTT (72 h, time 3 day): 19.8 s
Bas (72 h, time 3 day): 0%
Eos (72 h, time 3 day): 0.6%
Fbg (72 h, time 3 day): 196 mg/dL
Hb (72 h, time 3 day): 13.8 g/dL
Ht (72 h, time 3 day): 39.6%
Lym (72 h, time 3 day): 83.2%
MCH (72 h, time 3 day): 20.8 pg
MCHC (72 h, time 3 day): 34.8%
MCV (72 h, time 3 day): 59.9 fL
Mono (72 h, time 3 day): 3.8%
Neu (72 h, time 3 day): 11.8%
PT (72 h, time 3 day): 12.1 s
Plat (72 h, time 3 day): 132.7 x10_4/uL
RBC (72 h, time 3 day): 662.2 x10_4/ul
Ret (72 h, time 3 day): 1.7%
WBC (72 h, time 3 day): 99.5 x10_2/uL
KIDNEY_L (72 h, time 3 day): 1 g
KIDNEY_R (72 h, time 3 day): 1 g
KIDNEY_TOTAL (72 h, time 3 day): 1.9 g
LIVER (72 h, time 3 day): 15.4 g
ALP (72 h, time 3 day): 629 IU/L
AST (72 h, time 3 day): 46 IU/L
BUN (72 h, time 3 day): 17.6 mg/dL
CRE (72 h, time 3 day): 0.4 mg/dL
Ca (72 h, time 3 day): 10 mg/dL
Cl (72 h, time 3 day): 101.8 meq/L
DBIL (72 h, time 3 day): 0.094 mg/dL
GLC (72 h, time 3 day): 195 mg/dL
IP (72 h, time 3 day): 7.5 mg/dL
K (72 h, time 3 day): 3.8 meq/L
LDH (72 h, time 3 day): 200 IU/L
Na (72 h, time 3 day): 140.2 meq/L
PL (72 h, time 3 day): 207.4 mg/dL
RALB (72 h, time 3 day): 3.3 g/dL
TBIL (72 h, time 3 day): 0.2 mg/dL
TC (72 h, time 3 day): 120.8 mg/dL
TG (72 h, time 3 day): 157.2 mg/dL
TP (72 h, time 3 day): 5.6 g/dL
gamma-GTP (72 h, time 3 day): 2 IU/L
TERMINAL_BW ([…], time 7 day): 262 g
TERMINAL_BW ([…], time 14 day): 300.1 g
TERMINAL_BW ([…], time 28 day): 351.8 g
APTT ([…], time 7 day): 21.9 s
Bas ([…], time 7 day): 0%
Eos ([…], time 7 day): 0.6%
Fbg ([…], time 7 day): 215.2 mg/dL
Hb ([…], time 7 day): 12 g/dL
Ht ([…], time 7 day): 34.9%
Lym ([…], time 7 day): 80.4%
MCH ([…], time 7 day): 20.3 pg
MCHC ([…], time 7 day): 34.4%
MCV ([…], time 7 day): 59 fL
Mono ([…], time 7 day): 3.8%
Neu ([…], time 7 day): 14.6%
PT ([…], time 7 day): 11.9 s
Plat ([…], time 7 day): 171.4 x10_4/uL
RBC ([…], time 7 day): 591.8 x10_4/ul
Ret ([…], time 7 day): 4.3%
WBC ([…], time 7 day): 118.3 x10_2/uL
APTT ([…], time 14 day): 24.5 s
Bas ([…], time 14 day): 0%
Eos ([…], time 14 day): 0.6%
Fbg ([…], time 14 day): 203.8 mg/dL
Hb ([…], time 14 day): 11.7 g/dL
Ht ([…], time 14 day): 34.1%
Lym ([…], time 14 day): 82.2%
MCH ([…], time 14 day): 18.6 pg
MCHC ([…], time 14 day): 34.2%
MCV ([…], time 14 day): 54.3 fL
Mono ([…], time 14 day): 2.6%
Neu ([…], time 14 day): 13%
PT ([…], time 14 day): 12.7 s
Plat ([…], time 14 day): 139.7 x10_4/uL
RBC ([…], time 14 day): 628.4 x10_4/ul
Ret ([…], time 14 day): 5%
WBC ([…], time 14 day): 131 x10_2/uL
APTT ([…], time 28 day): 23.8 s
Bas ([…], time 28 day): 0%
Eos ([…], time 28 day): 0.6%
Fbg ([…], time 28 day): 196.8 mg/dL
Hb ([…], time 28 day): 12 g/dL
Ht ([…], time 28 day): 35.7%
Lym ([…], time 28 day): 78.6%
MCH ([…], time 28 day): 17.3 pg
MCHC ([…], time 28 day): 33.7%
MCV ([…], time 28 day): 51.3 fL
Mono ([…], time 28 day): 2.2%
Neu ([…], time 28 day): 17.6%
PT ([…], time 28 day): 12.3 s
Plat ([…], time 28 day): 124 x10_4/uL
RBC ([…], time 28 day): 697.2 x10_4/ul
Ret ([…], time 28 day): 4%
WBC ([…], time 28 day): 152.6 x10_2/uL
KIDNEY_L ([…], time 7 day): 1.1 g
KIDNEY_R ([…], time 7 day): 1.1 g
KIDNEY_TOTAL ([…], time 7 day): 2.1 g
KIDNEY_L ([…], time 14 day): 1.2 g
KIDNEY_R ([…], time 14 day): 1.2 g
KIDNEY_TOTAL ([…], time 14 day): 2.3 g
KIDNEY_L ([…], time 28 day): 1.2 g
KIDNEY_R ([…], time 28 day): 1.2 g
KIDNEY_TOTAL ([…], time 28 day): 2.5 g
LIVER ([…], time 7 day): 18.1 g
LIVER ([…], time 14 day): 21.2 g
LIVER ([…], time 28 day): 21.4 g
ALP ([…], time 7 day): 661.8 IU/L
AST ([…], time 7 day): 59.2 IU/L
BUN ([…], time 7 day): 16.6 mg/dL
CRE ([…], time 7 day): 0.4 mg/dL
Ca ([…], time 7 day): 10.7 mg/dL
Cl ([…], time 7 day): 101.4 meq/L
DBIL ([…], time 7 day): 0.064 mg/dL
GLC ([…], time 7 day): 187.4 mg/dL
IP ([…], time 7 day): 8.2 mg/dL
K ([…], time 7 day): 3.9 meq/L
LDH ([…], time 7 day): 242.4 IU/L
Na ([…], time 7 day): 140.6 meq/L
PL ([…], time 7 day): 200.8 mg/dL
RALB ([…], time 7 day): 3.5 g/dL
TBIL ([…], time 7 day): 0.1 mg/dL
TC ([…], time 7 day): 117.6 mg/dL
TG ([…], time 7 day): 62.4 mg/dL
TP ([…], time 7 day): 6.2 g/dL
gamma-GTP ([…], time 7 day): 2.6 IU/L
ALP ([…], time 14 day): 599 IU/L
AST ([…], time 14 day): 52.6 IU/L
BUN ([…], time 14 day): 18.2 mg/dL
CRE ([…], time 14 day): 0.5 mg/dL
Ca ([…], time 14 day): 10.8 mg/dL
Cl ([…], time 14 day): 102.8 meq/L
DBIL ([…], time 14 day): 0.072 mg/dL
GLC ([…], time 14 day): 191.4 mg/dL
IP ([…], time 14 day): 7.8 mg/dL
K ([…], time 14 day): 3.9 meq/L
LDH ([…], time 14 day): 195.8 IU/L
Na ([…], time 14 day): 141.2 meq/L
PL ([…], time 14 day): 206.6 mg/dL
RALB ([…], time 14 day): 3.6 g/dL
TBIL ([…], time 14 day): 0.1 mg/dL
TC ([…], time 14 day): 120.8 mg/dL
TG ([…], time 14 day): 77.8 mg/dL
TP ([…], time 14 day): 6.3 g/dL
gamma-GTP ([…], time 14 day): 2.2 IU/L
ALP ([…], time 28 day): 458.4 IU/L
AST ([…], time 28 day): 50.6 IU/L
BUN ([…], time 28 day): 18.2 mg/dL
CRE ([…], time 28 day): 0.5 mg/dL
Ca ([…], time 28 day): 10.7 mg/dL
Cl ([…], time 28 day): 102.2 meq/L
DBIL ([…], time 28 day): 0.07 mg/dL
GLC ([…], time 28 day): 190.8 mg/dL
IP ([…], time 28 day): 6.9 mg/dL
K ([…], time 28 day): 3.9 meq/L
LDH ([…], time 28 day): 119.2 IU/L
Na ([…], time 28 day): 142.6 meq/L
PL ([…], time 28 day): 185.8 mg/dL
RALB ([…], time 28 day): 3.8 g/dL
TBIL ([…], time 28 day): 0.1 mg/dL
TC ([…], time 28 day): 102.4 mg/dL
TG ([…], time 28 day): 49 mg/dL
TP ([…], time 28 day): 6.6 g/dL
gamma-GTP ([…], time 28 day): 2.4 IU/L
